Results: patent US4552879A, “Benzoheterocyclic compounds and pharmaceutical composition thereof” (Otsuka Pharmaceutical Co., Ltd., priority 1980, dated 1985)
Values after ≈ are worked out from the molar mass of the structure shown. Like-named read-outs stand apart in the source and are kept apart here.

Columns and labels:
Assay in all cases: Minimum inhibitory concentration, serial dilution method on agar plate
Format in all cases: cell-based
Shigella sonnei EW 33 = system: Shigella sonnei EW 33
Description: The antimicrobial activity of the following test compounds on various test organisms listed below was determined by the serial dilution method on agar plate (Heart Infusion agar produced by Difco Co.) (see CHEMOTHERAPY 22, pp. 1126-1128 (1974)), and the minimum inhibitory concentrations (mcg/ml) obtained are shown in Tables 1, 2 and 3 below.
A sample of each test organism was prepared so that the population of the organism was 1×10^8 cells/ml (O.D. 660 mμ=0.07 to 0.16) and 1×10^6 cells/ml (which was obtained by diluting 100 fold the above 1×10^8 cells/ml preparation).

Proteus rettgeri NIH 96 = conditions: Providencia rettgeri
[1] = system: Serratia marcescens IFO 12648
Klebsiella pneumoniae = system: Klebsiella pneumoniae
[2] = system: Streptococcus pyogenes IID S-23; conditions: Streptococcus pyogenes, read-out: Minimum Inhibitory Concentration
[3] = system: Escherichia Coli NIHJ JC-2 (IFO 12734)
[4] = system: Staphylococcus aureus FDA 209 P; conditions: Staphylococcus aureus, read-out: Minimum Inhibitory Concentration
[5] = system: Salmonella typhi 0-901 (NCTC 8393); conditions: Salmonella enterica
[6] = system: Pseudomonas aeruginosa ATCC 10145; conditions: Pseudomonas aeruginosa, read-out: Minimum Inhibitory Concentration
[7] = system: Pseudomonas aeruginosa E-2; conditions: Pseudomonas aeruginosa, read-out: Minimum Inhibitory Concentration
[8] = system: Pseudomonas aeruginosa NCTC 10490; conditions: for Minimum Inhibitory Concentration: 1×10^6 cells/ml; for MIC: Pseudomonas aeruginosa, NCTC10490, 1×10^8 cells/ml
Pseudomonas putida 12996 = conditions: read-out: Minimum Inhibitory Concentration
[9] = NIH96, 1×10^6 cells/ml, read-out: Minimum Inhibitory Concentration
[10] = NIH96, 1×10^8 cells/ml, read-out: Minimum Inhibitory Concentration
[11] = 1×10^6 cells/ml, read-out: Minimum Inhibitory Concentration
[12] = 1×10^8 cells/ml, read-out: Minimum Inhibitory Concentration
[13] = read-out: Minimum Inhibitory Concentration, 1×10^6 cells/ml
[14] = read-out: Minimum Inhibitory Concentration, 1×10^8 cells/ml
[15] = NIH96, read-out: Minimum Inhibitory Concentration, 1×10^6 cells/ml
[16] = IFO12648, 1×10^6 cells/ml, read-out: Minimum Inhibitory Concentration
[17] = IFO12648, 1×10^8 cells/ml, read-out: Minimum Inhibitory Concentration
[18] = Pseudomonas putida, 12996, 1×10^6 cells/ml
[19] = Pseudomonas putida, 12996, 1×10^8 cells/ml

| Compound | MIC (Shigella sonnei EW 33; EW33, 1×10^6 cells/ml) [µg/mL] | MIC (Shigella sonnei EW 33; EW33, 1×10^8 cells/ml) [µg/mL] | MIC (Proteus rettgeri NIH 96; [9]) [µg/mL] | MIC (Proteus rettgeri NIH 96; [10]) [µg/mL] | MIC (Klebsiella pneumoniae; [11]) [µg/mL] | MIC (Klebsiella pneumoniae; [12]) [µg/mL] | MIC ([2]; IIDS23, 1×10^6 cells/ml) [µg/mL] | MIC ([2]; IIDS23, 1×10^8 cells/ml) [µg/mL] | MIC [3, 11] [µg/mL] | MIC [3, 12] [µg/mL] | MIC ([4]; FDA209, 1×10^6 cells/ml) [µg/mL] | MIC ([4]; FDA209, 1×10^8 cells/ml) [µg/mL] | MIC [5, 13] [µg/mL] | MIC [5, 14] [µg/mL] | MIC ([6]; ATCC10145, 1×10^6 cells/ml) [µg/mL] | MIC ([6]; ATCC10145, 1×10^8 cells/ml) [µg/mL] | MIC ([7]; E2, 1×10^6 cells/ml) [µg/mL] | MIC ([7]; E2, 1×10^8 cells/ml) [µg/mL] | MIC [1, 16] [µg/mL] | MIC [1, 17] [µg/mL] | other results |
| --- | --- | --- | --- | --- | --- | --- | --- | --- | --- | --- | --- | --- | --- | --- | --- | --- | --- | --- | --- | --- | --- |
| CC1Cc2c(N3CCN(C(F)(F)F)CC3)c(F)cc3c(=O)c(C(=O)O)cn1c23.Cl (stereo not shown) [Compound 8, 9-(4-Trifluoromethyl-1-piperazinyl)-8-fluoro-2-methyl-1,2-dihydro-6-oxo-pyrrolo[3,2,1-ij]quinoline-5-carboxylic acid hydrochloride] | ≤ 0.006 | 0.012 | < 0.006 | 0.012 | 0.012 | 0.05 | 0.39 | 0.78 | 0.024 | 0.05 | 0.024 | 0.05 | ≤ 0.006 | ≤ 0.006 | 0.39 | 0.39 | 0.39 | 0.39 | – | – | MIC ([1]; IFO12648, read-out: Minimum Inhibitory Concentration, 1×10^6 cells/ml): 0.1 µg/mL; MIC ([1]; IFO12648, read-out: Minimum Inhibitory Concentration, 1×10^8 cells/ml): 0.2 µg/mL; Minimum Inhibitory Concentration [8]: 0.39 µg/mL; MIC [8]: 0.39 µg/mL |
| CC(=O)OC1CCN(c2c(F)cc3c(=O)c(C(=O)O)cn4c3c2CCC4C)CC1 (stereo not shown) [Compound 3, 9-Fluoro-8-(4-acetyloxy-1-piperidyl)-5-methyl-6,7-dihydro-1-oxo-1H,5H-benzo[ij]quinolizine-2-carboxylic acid] | 0.2 (≈ 0.497 µM) | 0.2 (≈ 0.497 µM) | – | – | 0.39 (≈ 0.969 µM) | 0.39 (≈ 0.969 µM) | 0.78 (≈ 1.94 µM) | 0.78 (≈ 1.94 µM) | 0.39 (≈ 0.969 µM) | 0.39 (≈ 0.969 µM) | 0.05 (≈ 0.124 µM) | 0.05 (≈ 0.124 µM) | 0.1 (≈ 0.248 µM) | 0.1 (≈ 0.248 µM) | 3.13 (≈ 7.78 µM) | 6.25 (≈ 15.5 µM) | 6.25 (≈ 15.5 µM) | 6.25 (≈ 15.5 µM) | 1.56 (≈ 3.88 µM) | 3.13 (≈ 7.78 µM) | MIC (Proteus rettgeri NIH 96; [15]): 0.2 µg/mL (≈ 0.497 µM); MIC (Proteus rettgeri NIH 96; NIH96, read-out: Minimum Inhibitory Concentration, 1×10^8 cells/ml): 0.2 µg/mL (≈ 0.497 µM); MIC (Pseudomonas putida 12996; [18]): 6.25 µg/mL (≈ 15.5 µM); MIC (Pseudomonas putida 12996; [19]): 6.25 µg/mL (≈ 15.5 µM) |
| CC1Cc2c(N3CCCC3)c(F)cc3c(=O)c(C(=O)O)cn1c23 (stereo not shown) [Compound 6, 9-(1-Pyrrolidinyl)-8-fluoro-2-methyl-1,2-dihydro-6-oxo-pyrrolo[3,2,1-ij]quinoline-5-carboxylic acid] | 0.024 (≈ 0.0759 µM) | 0.05 (≈ 0.158 µM) | 0.05 (≈ 0.158 µM) | 0.1 (≈ 0.316 µM) | 0.2 (≈ 0.632 µM) | 0.2 (≈ 0.632 µM) | 0.78 (≈ 2.47 µM) | 0.78 (≈ 2.47 µM) | 0.2 (≈ 0.632 µM) | 0.39 (≈ 1.23 µM) | 0.024 (≈ 0.0759 µM) | 0.024 (≈ 0.0759 µM) | 0.1 (≈ 0.316 µM) | 0.1 (≈ 0.316 µM) | 1.56 (≈ 4.93 µM) | 1.56 (≈ 4.93 µM) | 1.56 (≈ 4.93 µM) | 1.56 (≈ 4.93 µM) | 0.39 (≈ 1.23 µM) | 0.78 (≈ 2.47 µM) | Minimum Inhibitory Concentration [8]: 1.56 µg/mL; MIC [8]: 1.56 µg/mL (≈ 4.93 µM) |
| CC1CCc2c(N3CCC(N(C)C)CC3)c(F)cc3c(=O)c(C(=O)O)cn1c23 (stereo not shown) [Compound 5, 9-Fluoro-8-(4-dimethylamino-1-piperidyl)-5-methyl-6,7-dihydro-1-oxo-1H,5H-benzo[ij]quinolizine-2-carboxylic acid] | 0.2 (≈ 0.516 µM) | 0.2 (≈ 0.516 µM) | – | 0.39 (≈ 1.01 µM) | – | – | 0.39 (≈ 1.01 µM) | 0.78 (≈ 2.01 µM) | – | – | 0.05 (≈ 0.129 µM) | 0.05 (≈ 0.129 µM) | 0.2 (≈ 0.516 µM) | 0.2 (≈ 0.516 µM) | 3.13 (≈ 8.08 µM) | 6.25 (≈ 16.1 µM) | 6.25 (≈ 16.1 µM) | 6.25 (≈ 16.1 µM) | 0.78 (≈ 2.01 µM) | 1.56 (≈ 4.03 µM) | MIC (Proteus rettgeri NIH 96; [15]): 0.2 µg/mL (≈ 0.516 µM); MIC (Pseudomonas putida 12996; [18]): 6.25 µg/mL (≈ 16.1 µM); MIC (Pseudomonas putida 12996; [19]): 6.25 µg/mL (≈ 16.1 µM); MIC (Klebsiella pneumoniae; [13]): 0.1 µg/mL (≈ 0.258 µM); MIC (Klebsiella pneumoniae; [14]): 0.2 µg/mL (≈ 0.516 µM); MIC [3, 13]: 0.2 µg/mL (≈ 0.516 µM); MIC [3, 14]: 0.2 µg/mL (≈ 0.516 µM) |
